These results are taken from ChEMBL document CHEMBL1201862, “PubChem BioAssay data set” (2004).

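All cell lines were grown in 96-well plates and treated with compound for 48 hours. GI50 marks 50% less growth.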 The source made the active and inactive calls. No stated cut-off is given here; in the data, active = GI50 up to about 1.1 µM and inactive = higher. Starred links: 1 amine or outer side, 2 acyl side, 3 side chain; linkers in the order of their positions; H or OH if unused. Non-standard residues stand in square brackets, D forms with d. Residues, ends and D or L forms follow the SMILES beside them. X4 = C[C@H](N[*:1])C(=O)C(C)(C)C(=O)[*:2]; Hmpa(2S,3S) = CC[C@H](C)[C@H](O)C(=O)O; NMeY = CN[C@@H](Cc1ccc(O)cc1)C(=O)O; NMeL = CN[C@@H](CC(C)C)C(=O)O; NMeV = CN[C@H](C(=O)O)C(C)C; βAla = NCCC(=O)O

Holding throughout (test): DTP human tumour cell line panel, 48 h
Assay [1] has as its system CCRF-CEM.
Assay [2] relates to UACC-62.
The test system of assay [3] is UO-31.
The test system of assay [4] is MDA-N.
The subject of assay [5] is 786-0.
For assay [6], the system named is MDA-MB-435.
In assay [7] the test system is NCI-H460.
The test system of assay [8] is HL-60.
Assay [9] deals with K562.
In assay [10] the test system is SR.
The test system of assay [11] is OVCAR-5.
Assay [12] concerns EKVX.
The subject of assay [13] is SK-MEL-28.
Assay [14] concerns SF-268.
The subject of assay [15] is NCI/ADR-RES.
In assay [16] the test system is MDA-MB-231.
The test system of assay [17] is A549.
Assay [18] relates to SNB-75.
The subject of assay [19] is RXF 393.
The test system of assay [20] is OVCAR-3.

Turning to `O=C(O)c1cnc(-n2[nH]c3c(c2=O)CCCC3)[nH]c1=O`, the GI50 in [1], in assay [2], in assay [3], in assay [4], in assay [5] and in assay [6] was > 100 µM (inactive) throughout. Further, the GI50 in assay [7], in assay [8], in assay [9], in assay [10], in assay [11] and in assay [12] was > 100 µM (inactive) in each case. Further, the GI50 in assay [13], in assay [14], in assay [15], in assay [16] and in [17] was > 100 µM (inactive) throughout.
For the compound `NC(=O)C(=O)C(c1ccccc1)S(=O)(=O)Cc1ccccc1` (centres undefined), the GI50 in [1], in assay [2], in assay [3], in assay [4], in assay [5] and in assay [6] was > 100 µM (inactive) throughout. Besides, the GI50 in assay [7], in assay [9], in assay [10], in assay [11], in assay [12] and in [13] was > 100 µM (inactive) throughout. The GI50 (in general, the concentration that inhibits growth by half) was > 82 µM (inactive) in assay [18]; > 100 µM (inactive) in [14]; > 100 µM (inactive) in [15]; > 100 µM (inactive) in [16]; > 100 µM (inactive) in assay [19]; > 100 µM (inactive) in [20]. The GI50 in [17] was > 100 µM (inactive).
For the compound `CC(=O)/C(=C\NC(N)=S)C(=O)Nc1ccccc1C`, the GI50 in assay [1], in assay [2], in assay [3], in assay [4], in assay [5] and in [6] was > 100 µM (inactive) each time. In addition, the GI50 in [7], in assay [9], in assay [10], in [11], in assay [12] and in assay [13] was > 100 µM (inactive) each time. Further, the GI50 in assay [18], in [14], in assay [15], in assay [16], in assay [19] and in assay [20] was > 100 µM (inactive) in each case. In [17], the GI50 was > 100 µM (inactive).
As for `CCc1ccc2oc(-c3cc(O)c(-c4nc5cc(CC)ccc5o4)cc3O)nc2c1`, the GI50 in [1], in assay [2], in assay [3], in [4], in assay [5] and in assay [6] was > 100 µM (inactive) throughout. In addition, the GI50 in assay [7], in [8], in [9], in assay [10], in [11] and in assay [12] was > 100 µM (inactive) in each case. In addition, the GI50 in assay [13] is > 100 µM (inactive); in [18], 86.5 µM (inactive); in assay [14], > 100 µM (inactive); in [15] it was > 100 µM (inactive); in [16] it was > 100 µM (inactive); in [17], > 100 µM (inactive).
For the compound `O=C(O)CCN1CCN(CCC(=O)O)CCN(CCC(=O)O)CC1`, the GI50 in assay [1] is > 100 µM (inactive); in assay [2] it was > 100 µM (inactive); in assay [3], > 100 µM (inactive); in assay [4], > 100 µM (inactive); in assay [5], 79.6 µM (inactive); in assay [6], > 100 µM (inactive). Also, the GI50 in assay [7] is 56.2 µM (inactive); in [8] it was 25.5 µM (inactive); in assay [9], 36.3 µM (inactive); in assay [10], 44.6 µM (inactive); in [11], > 100 µM (inactive); in assay [12] it was > 100 µM (inactive). For the same compound, the GI50 in assay [13] is > 100 µM (inactive); in assay [18], 45.8 µM (inactive); in assay [15] it was > 100 µM (inactive); in assay [16] it was > 100 µM (inactive); in assay [20] it was > 100 µM (inactive); in assay [17], 69.3 µM (inactive).
In the case of `Cc1cccc(N2CCN(S(=O)(=O)c3ccc(Cl)cc3)C2=N)c1C`, the GI50 in assay [2] is 38.4 µM (inactive); in assay [3], 47.9 µM (inactive); in assay [4], > 100 µM (inactive); in assay [5], > 100 µM (inactive); in [6], > 100 µM (inactive); in assay [9], 33.1 µM (inactive). The GI50 was 18.1 µM (inactive) in assay [10]; > 100 µM (inactive) in [11]; 38.6 µM (inactive) in assay [13]; > 100 µM (inactive) in assay [18]; > 100 µM (inactive) in [14]; > 100 µM (inactive) in assay [15]. For the same compound, the GI50 in assay [16], in assay [19] and in assay [17] was > 100 µM (inactive) in each case.
Regarding `c1ccc(-c2cc(-c3ccccc3)nc(-c3ccncc3)c2)cc1`, the GI50 in assay [1] was > 100 µM (inactive); in assay [2] it was > 100 µM (inactive); in [3], > 100 µM (inactive); in [4] it was > 100 µM (inactive); in [5], 18 µM (inactive); in assay [6] it was > 100 µM (inactive). Besides, the GI50 in assay [8], in assay [9], in assay [10], in assay [11], in [12] and in [13] was > 100 µM (inactive) throughout. Moreover, the GI50 in assay [14] is > 100 µM (inactive); in [15], > 100 µM (inactive); in assay [16] it was 97.5 µM (inactive); in assay [19], 44.6 µM (inactive); in assay [20], > 100 µM (inactive); in assay [17] it was > 100 µM (inactive).
For the compound `CN1C(=O)c2ccccc2NC(=O)C12O[C@@H]2c1cccc(O)c1` (some centres undefined), the GI50 in assay [1], in assay [2], in assay [3], in assay [4], in assay [5] and in assay [6] was > 100 µM (inactive) throughout. Besides, the GI50 is > 100 µM (inactive) in assay [7]; > 100 µM (inactive) in assay [8]; > 100 µM (inactive) in [10]; 95.9 µM (inactive) in assay [11]; > 100 µM (inactive) in assay [12]; > 100 µM (inactive) in assay [13]. Also, the GI50 in [18], in [14], in assay [15], in [16], in assay [20] and in [17] was > 100 µM (inactive) in each case.
As for `CC(=O)O[C@H]1C(=O)[C@@]2(C)C(C(OC(=O)c3ccccc3)[C@]3(O)CC(OC(=O)C(O)C(NC(=O)c4cccc(Cl)c4)c4ccccc4)C(C)=C1C3(C)C)[C@]1(OC(C)=O)CO[C@@H]1C[C@@H]2O` (some centres undefined), the GI50 in [1] was 0.262 µM (active); in [4], 0.0914 µM (active); in [5], 0.728 µM (active); in assay [6], 0.118 µM (active); in [7], 0.419 µM (active); in assay [8], 0.148 µM (active). For the same compound, the GI50 was 0.562 µM (active) in assay [9]; 0.218 µM (active) in assay [10]; 1.1 µM (active) in assay [11]; > 10 µM (inactive) in [12]; 1.1 µM (active) in [18]; 0.268 µM (active) in [14]. The GI50 in assay [15] is 5.28 µM (inactive); in assay [16], 1.73 µM (inactive); in assay [20] it was 0.449 µM (active); in assay [17], 0.693 µM (active).
Regarding `CN(C)c1ccc(/C=C/c2nc3ccccc3s2)cc1`, the GI50 in assay [1] was > 100 µM (inactive); in assay [3] it was 8.53 µM (inactive); in [4], > 100 µM (inactive); in assay [5] it was > 100 µM (inactive); in assay [6] it was 45.1 µM (inactive); in assay [7] it was > 100 µM (inactive). Further, the GI50 in assay [8] is 6.08 µM (inactive); in assay [9] it was > 100 µM (inactive); in [10], > 100 µM (inactive); in assay [11], > 100 µM (inactive); in assay [12], > 100 µM (inactive); in assay [13], > 100 µM (inactive). Besides, the GI50 in assay [14], in [15], in assay [16], in assay [19] and in [17] was > 100 µM (inactive) throughout.
Take `CC[C@H](C)[C@@H]1OC(=O)CCNC(=O)[C@@H](C)NC(=O)C(C)(C)C(=O)[C@H](C)NC(=O)[C@H](Cc2ccc(OC)cc2)N(C)C(=O)[C@H](C(C)C)N(C)C(=O)CNC(=O)[C@H](CC(C)C)N(C)C(=O)CNC1=O` (cyclo(G[NMeL]G[NMeV][NMeY](Me)[X4][dA][βAla][Hmpa(2S,3S)])): the GI50 is 0.0568 µM (active) in assay [1]; 0.294 µM (active) in assay [2]; 7.76 µM (inactive) in assay [3]; 0.299 µM (active) in assay [4]; 0.676 µM (active) in assay [5]; 0.953 µM (active) in [6]. In addition, the GI50 in assay [7] is 0.0615 µM (active); in assay [9] it was 0.0389 µM (active); in assay [10], 0.337 µM (active); in assay [11] it was 0.724 µM (active); in assay [12] it was 3.24 µM (inactive); in assay [13], 0.15 µM (active). For the same compound, the GI50 was 0.348 µM (active) in assay [18]; 0.254 µM (active) in [14]; 26.4 µM (inactive) in assay [15]; 0.476 µM (active) in assay [16]; 0.733 µM (active) in assay [19]; 0.621 µM (active) in assay [20]. Moreover, the GI50 in assay [17] was 0.37 µM (active).
